The supplement of paper PMC10307832

Experiments:
Assay in all cases: relative viability (nuclei count vs DMSO), 5 days (fraction); higher = more cells survive
[1] = compound: C1/C(=C\C2=CC=CS2)/C(=O)/C(=C/C3=CC=CS3)/C1 + Cc1nc(NC(=O)N2CCC[C@H]2C(N)=O)sc1-c1ccnc(C(C)(C)C(F)(F)F)c1 [Alpelisib] (partner 2 µM)
Outline: (§1)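 For relative viability, nuclei counts in treated wells were divided by those in vehicle wells. Lung cancer cell lines had been pin-tool dosed in 1536-well plates the day after seeding and cultured for 5 days, then fixed and stained in one step (final 0.05% Triton X-100, 1% formaldehyde, 1 ug/ml Hoechst) and imaged at 4×. Doses were one drug alone or a fixed anchor-drug dose plus five library-drug doses (not always all listed) in √10 steps, and values are duplicate-plate medians.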

TPCA-1 + Tozasertib = compound: C1=CC(=CC=C1C2=CC(=C(S2)NC(=O)N)C(=O)N)F [TPCA-1] + Cc1cc(Nc2cc(N3CCN(C)CC3)nc(Sc3ccc(NC(=O)C4CC4)cc3)n2)n[nH]1 [Tozasertib] (partner 0.1 µM)
Outline: as §1

[2] = compound: C[C@]12O[C@H](C[C@]1(O)CO)n1c3ccccc3c3c4c(c5c6ccccc6n2c5c31)CNC4=O [Lestaurtinib] + CC1(C)CCC(c2ccc(Cl)cc2)=C(CN2CCN(c3ccc(C(=O)NS(=O)(=O)c4ccc(N[C@H](CCN5CCOCC5)CSc5ccccc5)c(S(=O)(=O)C(F)(F)F)c4)cc3)CC2)C1 [Navitoclax] (partner 0.5 µM)
Outline: as §1

Lestaurtinib + AZD7762 = compound: C[C@]12O[C@H](C[C@]1(O)CO)n1c3ccccc3c3c4c(c5c6ccccc6n2c5c31)CNC4=O [Lestaurtinib] + NC(=O)Nc1cc(-c2cccc(F)c2)sc1C(=O)N[C@H]1CCCNC1 [AZD7762] (partner 0.2 µM)
Outline: as §1

| Cell Line | relative viability ([1]; first compound 0.2 µM) | relative viability ([1]; first compound 0.6325 µM) | relative viability ([1]; first compound 2 µM) | relative viability ([1]; first compound 6.325 µM) | relative viability ([1]; first compound 20 µM) | relative viability (TPCA-1 + Tozasertib; first compound 0.04 µM) | relative viability (TPCA-1 + Tozasertib; first compound 0.1265 µM) | relative viability (TPCA-1 + Tozasertib; first compound 0.4 µM) | relative viability (TPCA-1 + Tozasertib; first compound 1.265 µM) | relative viability (TPCA-1 + Tozasertib; first compound 4 µM) | relative viability ([2]; first compound 0.005 µM) | relative viability ([2]; first compound 0.01581 µM) | relative viability ([2]; first compound 0.05 µM) | relative viability ([2]; first compound 0.1581 µM) | relative viability ([2]; first compound 0.5 µM) | relative viability (Lestaurtinib + AZD7762; first compound 0.005 µM) | relative viability (Lestaurtinib + AZD7762; first compound 0.01581 µM) | relative viability (Lestaurtinib + AZD7762; first compound 0.05 µM) | relative viability (Lestaurtinib + AZD7762; first compound 0.1581 µM) | relative viability (Lestaurtinib + AZD7762; first compound 0.5 µM) |
| --- | --- | --- | --- | --- | --- | --- | --- | --- | --- | --- | --- | --- | --- | --- | --- | --- | --- | --- | --- | --- |
| RERF-LC-KJ | 0.73 | 0.89 | 0.748 | 0.705 | 0.815 | 0.556 | 0.518 | 0.61 | 0.43 | 0.29 | 1.24 | 1.1 | 0.792 | 0.618 | 0.641 | 1.1 | 1.16 | 0.729 | 0.984 | 0.61 |
| NCI-H322M | 0.739 | 0.833 | 0.832 | 0.666 | 0.708 | 0.523 | 0.464 | 0.462 | 0.416 | 0.303 | 1.28 | 0.977 | 0.563 | 0.463 | 0.461 | 0.511 | 0.538 |  | 0.517 | 0.479 |
| NCI-H1993 | 0.698 | 0.655 | 0.633 | 0.703 | 0.637 | 0.573 | 0.562 | 0.655 | 0.606 | 0.559 | 1.16 | 0.991 | 0.846 | 0.632 | 0.7 | 0.581 | 0.553 | 0.619 | 0.632 | 0.47 |
| NCI-H1437 | 0.985 | 0.923 | 0.988 | 0.639 | 0.901 | 0.434 | 0.39 | 0.42 | 0.385 | 0.372 | 1.13 | 1.2 | 1 | 1.02 | 0.689 | 1.13 | 1.2 | 0.941 | 1.12 | 0.945 |
| NCI-H838 | 1.03 | 0.986 | 0.939 | 0.848 | 0.974 | 0.257 | 0.232 | 0.249 | 0.217 | 0.223 | 1.21 | 1.05 | 1 | 0.532 | 0.164 | 1.01 | 0.951 | 0.933 | 0.873 | 0.681 |
| NCI-H1666 | 1.18 | 0.936 | 0.972 | 0.712 | 0.852 | 0.627 | 0.598 | 0.635 | 0.543 | 0.461 | 1.18 | 1.05 | 1.08 | 0.581 | 0.355 | 0.753 | 0.903 | 0.933 | 1.01 | 0.654 |
| NCI-H1944 | 0.864 | 0.8 | 0.855 | 0.713 | 0.818 | 0.239 | 0.252 | 0.239 | 0.247 | 0.208 | 1.12 | 1.01 | 0.956 | 0.673 | 0.638 | 0.609 | 0.514 | 0.623 | 0.487 | 0.228 |
| NCI-H1755 | 0.951 | 0.963 | 1 | 0.796 | 0.929 | 0.57 | 0.526 | 0.52 | 0.511 | 0.374 | 1.01 | 0.944 | 0.633 | 0.265 | 0.223 | 0.437 | 0.401 | 0.492 | 0.344 | 0.25 |
| NCI-H23 | 0.705 | 0.899 | 0.706 | 0.483 | 0.742 | 0.303 | 0.348 | 0.332 | 0.308 | 0.248 | 0.862 | 0.84 | 0.918 | 0.784 | 0.422 | 0.213 | 0.257 | 0.227 | 0.246 | 0.203 |
| 201T | 1.01 | 0.964 | 1.08 | 0.934 | 1 | 0.958 | 0.924 | 1.05 | 0.976 | 0.636 | 1.21 | 1.22 | 1.29 | 1.28 | 1.18 | 0.589 | 0.656 | 0.53 | 0.92 | 0.776 |
| NCI-H1734 | 0.725 | 0.666 | 0.713 | 0.588 | 0.682 | 0.272 | 0.29 | 0.266 | 0.264 | 0.264 | 0.849 | 0.957 | 0.657 | 0.512 | 0.159 | 0.502 | 0.512 | 0.447 | 0.326 | 0.18 |
| NCI-H1355 | 0.794 | 0.722 | 0.758 | 0.72 | 0.804 | 0.595 | 0.574 | 0.597 | 0.461 | 0.254 | 0.908 | 0.889 | 0.73 | 0.457 | 0.459 | 0.839 | 0.815 | 0.574 | 0.54 | 0.422 |
| NCI-H1915 | 1.05 | 1.06 | 1.09 | 0.976 | 1.03 | 0.435 | 0.428 | 0.435 | 0.362 | 0.229 | 0.766 | 0.801 | 0.774 | 0.724 | 0.503 | 0.751 | 0.745 | 0.655 | 0.52 | 0.24 |
| BEN | 1.02 | 0.981 | 0.977 | 0.972 | 1.07 | 0.548 |  | 0.526 | 0.628 | 0.403 | 0.0676 | 0.07 | 0.0559 | 0.0652 | 0.0525 | 0.674 | 0.818 | 0.634 | 0.625 | 0.341 |
| NCI-H3122 | 0.887 | 0.785 | 0.876 | 0.488 | 0.891 | 0.465 | 0.37 | 0.463 | 0.329 | 0.268 | 1.13 | 1.1 | 1.12 | 1.12 | 0.536 | 1.05 | 1.08 | 1.1 | 1.32 | 0.537 |
